The text below walks through data of US20100292231A1, “Indazole Compounds for Treating Inflammatory Disorders, Demyelinating Disorders and Cancers” (priority 2007, published 2010).

Where two headings read alike, the source gives them in different places.

One experiment relates to Mda231 cells. The experiment is described as follows: BME cell invasion assay (Boyden chamber principle). Type of experiment: cell-based. The following applies: 24 hours. Here is the method:
Representative compounds were tested for their ability to inhibit invasion of Mda231 cells. Invasive cells are a mark of metastatic tumors. The in vitro invasion assay is based on the Boyden chamber assay principle.
The 96-well BME cell invasion assay kit was used according to the manufacturers' protocol (Culturex™ catalog number: 3455-096-K). Prior to assay cells were serum starved for 18 hrs and the membrane of the top invasion chamber was coated with 50 μl of 0.83× BME solution and incubated overnight at 37° C./5% CO2. The next day cells were harvested and 40.000 cells/well in 50 μl medium without serum were plated to top chamber. 150 μl of medium with serum was added to bottom chamber. Compounds were added and cells were incubated for 24 hrs at 37° C./5% CO2. The remaining cells were assayed for standard curve.
After 24 hours, the bottom chamber was aspirated and washed twice with 200 μl wash buffer. The bottom chamber was transferred to a black assay plate. Cells migrated through the membrane are stained with Calcein-AM and measured with fluorescence spectrophotometry; 150 μl Calcein-AM/Cell dissociation solution was added and incubated at 37° C./5% CO2. After 1 hour, the plate was read at 485 nm excitation, 520 nm emission. Using standard curve, the fluorescence signal measured was converted to cell number and percent invasion was determined.

Another experiment has as its target T1, RET Y791F (Homo sapiens, UniProt P07949, Y791F).
T1 construct: purchased Invitrogen (SelectScreen)
The experiment in a line: SelectScreen kinase specificity survey. It counts as biochemical. The conditions noted are these: estimated, abridged dose response curve, read-out: Kinase inhibitory activity EC50. The method, boiled down: (§1)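 EC50 values are estimates from an abridged dose-response curve fitted to a 4-parameter Hill sigmoid. Compound was titrated in 5 increments against each kinase, which was paired with a unique substrate and optical reporter in 100 micromolar ATP.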

In a further experiment the target is T2, EPHB1 (Homo sapiens, UniProt P54762).
T2 construct: purchased Invitrogen (SelectScreen service)
The experiment in a line: SelectScreen kinase specificity survey. It counts as biochemical. The method, boiled down:
as §1

Another experiment concerns the target T3, CDK5/p35 (Homo sapiens, UniProt Q00535).
T3 construct: purchased Invitrogen (SelectScreen platform)
The experiment is described as follows: SelectScreen kinase specificity survey. Type of experiment: biochemical. The conditions noted are these: estimated, abridged dose response curve, read-out: Kinase inhibitory activity EC50. In outline: as §1

Another experiment concerns the target T4, RPS6KA6 (RSK4) (Homo sapiens, UniProt Q9UK32).
T4 construct: purchased Invitrogen, Inc. (SelectScreen platform)
The experiment is described as follows: SelectScreen kinase specificity survey. Type of experiment: biochemical. The following applies: estimated, abridged dose response curve, read-out: Kinase inhibitory activity EC50. In outline: as §1

Another experiment concerns the target T5, MAPK3 (ERK1) (Homo sapiens, UniProt P27361).
T5 construct: purchased Invitrogen, Inc. (SelectScreen service)
The experiment in a line: SelectScreen kinase specificity survey. It counts as biochemical. The conditions noted are these: estimated, abridged dose response curve, read-out: Kinase inhibitory activity EC50. The method, boiled down:
as §1

A further experiment concerns the target T6, EPHA3 (Homo sapiens, UniProt P29320).
T6 construct: purchased Invitrogen (SelectScreen service)
The experiment in a line: SelectScreen kinase specificity survey. It counts as biochemical. The following applies: estimated, abridged dose response curve, read-out: Kinase inhibitory activity EC50. The method, boiled down:
as §1

For another experiment, the target named is T7, PRKX (Homo sapiens, UniProt P51817).
T7 construct: purchased Invitrogen (SelectScreen platform)
The experiment in a line: SelectScreen kinase specificity survey. Type of experiment: biochemical. The conditions noted are these: estimated, abridged dose response curve, read-out: Kinase inhibitory activity EC50. The method, boiled down: as §1

The next experiment concerns the target T8, DYRK3 (Homo sapiens, UniProt O43781).
T8 construct: purchased Invitrogen (SelectScreen platform)
The experiment in a line: SelectScreen kinase specificity survey. Type of experiment: biochemical. The following applies: estimated, abridged dose response curve, read-out: Kinase inhibitory activity EC50. In outline: as §1

Another experiment addresses T9, CAMK2D (CaMKII delta) (Homo sapiens, UniProt Q13557).
T9 construct: purchased Invitrogen, Inc. (SelectScreen platform)
The experiment is described as follows: SelectScreen kinase specificity survey. Type of experiment: biochemical. The conditions noted are these: estimated, abridged dose response curve, read-out: Kinase inhibitory activity EC50. The method, boiled down: as §1

For another experiment, the target named is T10, PAK2 (PAK65) (Homo sapiens, UniProt Q13177).
T10 construct: purchased Invitrogen (SelectScreen platform)
The experiment in a line: SelectScreen kinase specificity survey. Type of experiment: biochemical. The conditions noted are these: estimated, abridged dose response curve, read-out: Kinase inhibitory activity EC50. In outline: as §1

The target of the next experiment is T11, CSF1R (FMS) (Homo sapiens, UniProt P07333).
T11 construct: purchased Invitrogen (SelectScreen platform)
The experiment is described as follows: SelectScreen kinase specificity survey. It counts as biochemical. The following applies: estimated, abridged dose response curve, read-out: Kinase inhibitory activity EC50. The method, boiled down:
as §1

The target in another experiment is T12, PRKCA (PKC alpha) (Homo sapiens, UniProt P17252).
T12 construct: purchased Invitrogen (SelectScreen platform)
The experiment is described as follows: SelectScreen kinase specificity survey. The following applies: estimated, abridged dose response curve, read-out: Kinase inhibitory activity EC50. Type of experiment: biochemical. In outline:
as §1

In a further experiment the target is T13, EGFR (ErbB1) L858R (Homo sapiens, UniProt P00533, L858R).
T13 construct: purchased Invitrogen (SelectScreen service)
The experiment in a line: SelectScreen kinase specificity survey. Type of experiment: biochemical. The following applies: estimated, abridged dose response curve, read-out: Kinase inhibitory activity EC50. The method, boiled down:
as §1

For a further experiment, the target named is T14, LYN A (Homo sapiens, UniProt P07948).
T14 construct: purchased Invitrogen (SelectScreen)
The experiment is described as follows: SelectScreen kinase specificity survey. The following applies: estimated, abridged dose response curve, read-out: Kinase inhibitory activity EC50. Type of experiment: biochemical. In outline: as §1

In the next experiment the target is T15, ACVR1B (ALK4) (Homo sapiens, UniProt P36896).
T15 construct: purchased Invitrogen, Inc. (SelectScreen platform)
The experiment is described as follows: SelectScreen kinase specificity survey. Type of experiment: biochemical. The following applies: estimated, abridged dose response curve, read-out: Kinase inhibitory activity EC50. In outline: as §1

For the next experiment, the target named is T16, MAP3K8 (COT) (Homo sapiens, UniProt P41279).
T16 construct: purchased Invitrogen, Inc. (SelectScreen service)
The experiment in a line: SelectScreen kinase specificity survey. It counts as biochemical. The following applies: estimated, abridged dose response curve, read-out: Kinase inhibitory activity EC50. In outline:
as §1

For another experiment, the target named is T17, PRKCG (PKC gamma) (Homo sapiens, UniProt P05129).
T17 construct: purchased Invitrogen, Inc. (SelectScreen platform)
The experiment is described as follows: SelectScreen kinase specificity survey. Type of experiment: biochemical. The following applies: estimated, abridged dose response curve, read-out: Kinase inhibitory activity EC50. The method, boiled down:
as §1

A further experiment concerns the target T18, MINK1 (ZC3) (Homo sapiens, UniProt Q8N4C8).
T18 construct: purchased Invitrogen (SelectScreen platform)
The experiment is described as follows: SelectScreen kinase specificity survey. It counts as biochemical. The following applies: estimated, abridged dose response curve, read-out: Kinase inhibitory activity EC50. The method, boiled down: as §1

T18 sequence (Q8N4C8 whole entry): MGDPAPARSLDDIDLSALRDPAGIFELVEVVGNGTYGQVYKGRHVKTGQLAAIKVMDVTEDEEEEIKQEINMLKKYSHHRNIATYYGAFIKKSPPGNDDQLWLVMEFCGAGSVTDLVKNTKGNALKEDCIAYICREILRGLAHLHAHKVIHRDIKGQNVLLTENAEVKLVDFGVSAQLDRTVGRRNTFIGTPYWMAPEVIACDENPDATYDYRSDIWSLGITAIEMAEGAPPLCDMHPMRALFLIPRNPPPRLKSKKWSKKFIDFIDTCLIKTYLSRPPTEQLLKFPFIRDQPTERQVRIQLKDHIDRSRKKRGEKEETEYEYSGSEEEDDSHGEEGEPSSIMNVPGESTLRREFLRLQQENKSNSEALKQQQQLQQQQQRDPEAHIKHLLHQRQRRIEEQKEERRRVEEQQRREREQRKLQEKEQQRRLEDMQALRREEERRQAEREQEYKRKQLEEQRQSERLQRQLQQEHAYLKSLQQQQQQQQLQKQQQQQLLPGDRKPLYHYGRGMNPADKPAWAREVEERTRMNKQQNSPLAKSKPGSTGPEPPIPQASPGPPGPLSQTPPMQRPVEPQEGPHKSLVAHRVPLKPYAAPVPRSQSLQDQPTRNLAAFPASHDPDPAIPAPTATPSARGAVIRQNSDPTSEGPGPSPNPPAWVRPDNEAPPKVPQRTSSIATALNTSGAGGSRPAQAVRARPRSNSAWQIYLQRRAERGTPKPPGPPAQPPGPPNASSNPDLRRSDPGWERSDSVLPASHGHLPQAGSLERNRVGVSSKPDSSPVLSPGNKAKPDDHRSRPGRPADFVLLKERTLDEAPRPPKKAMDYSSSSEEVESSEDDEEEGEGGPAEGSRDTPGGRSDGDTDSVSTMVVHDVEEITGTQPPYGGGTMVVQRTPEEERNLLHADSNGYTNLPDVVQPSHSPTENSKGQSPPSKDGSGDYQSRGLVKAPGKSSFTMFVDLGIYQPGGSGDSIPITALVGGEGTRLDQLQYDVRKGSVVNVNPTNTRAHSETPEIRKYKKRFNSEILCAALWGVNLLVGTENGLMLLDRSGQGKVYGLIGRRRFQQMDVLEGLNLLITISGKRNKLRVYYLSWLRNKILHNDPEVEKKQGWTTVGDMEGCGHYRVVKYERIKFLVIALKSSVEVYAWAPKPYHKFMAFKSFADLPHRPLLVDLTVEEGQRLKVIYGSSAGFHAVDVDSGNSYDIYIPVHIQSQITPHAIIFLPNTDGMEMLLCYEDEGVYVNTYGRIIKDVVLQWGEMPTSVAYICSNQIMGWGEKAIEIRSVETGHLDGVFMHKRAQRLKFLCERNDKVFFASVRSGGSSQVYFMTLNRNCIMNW
T16 sequence (P41279 whole entry): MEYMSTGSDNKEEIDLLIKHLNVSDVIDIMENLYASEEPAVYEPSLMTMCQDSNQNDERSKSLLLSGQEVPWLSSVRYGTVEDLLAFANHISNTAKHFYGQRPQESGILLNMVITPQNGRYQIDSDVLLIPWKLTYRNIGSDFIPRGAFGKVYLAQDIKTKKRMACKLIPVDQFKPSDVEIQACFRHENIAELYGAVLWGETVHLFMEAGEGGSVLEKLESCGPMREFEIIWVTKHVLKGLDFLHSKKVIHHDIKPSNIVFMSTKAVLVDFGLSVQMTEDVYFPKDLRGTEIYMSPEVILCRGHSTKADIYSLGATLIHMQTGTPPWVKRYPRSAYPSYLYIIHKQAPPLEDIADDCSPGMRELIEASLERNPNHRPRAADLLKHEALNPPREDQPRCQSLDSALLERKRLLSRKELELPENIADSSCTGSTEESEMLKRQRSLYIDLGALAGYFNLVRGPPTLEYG
T11 sequence (P07333 20-972): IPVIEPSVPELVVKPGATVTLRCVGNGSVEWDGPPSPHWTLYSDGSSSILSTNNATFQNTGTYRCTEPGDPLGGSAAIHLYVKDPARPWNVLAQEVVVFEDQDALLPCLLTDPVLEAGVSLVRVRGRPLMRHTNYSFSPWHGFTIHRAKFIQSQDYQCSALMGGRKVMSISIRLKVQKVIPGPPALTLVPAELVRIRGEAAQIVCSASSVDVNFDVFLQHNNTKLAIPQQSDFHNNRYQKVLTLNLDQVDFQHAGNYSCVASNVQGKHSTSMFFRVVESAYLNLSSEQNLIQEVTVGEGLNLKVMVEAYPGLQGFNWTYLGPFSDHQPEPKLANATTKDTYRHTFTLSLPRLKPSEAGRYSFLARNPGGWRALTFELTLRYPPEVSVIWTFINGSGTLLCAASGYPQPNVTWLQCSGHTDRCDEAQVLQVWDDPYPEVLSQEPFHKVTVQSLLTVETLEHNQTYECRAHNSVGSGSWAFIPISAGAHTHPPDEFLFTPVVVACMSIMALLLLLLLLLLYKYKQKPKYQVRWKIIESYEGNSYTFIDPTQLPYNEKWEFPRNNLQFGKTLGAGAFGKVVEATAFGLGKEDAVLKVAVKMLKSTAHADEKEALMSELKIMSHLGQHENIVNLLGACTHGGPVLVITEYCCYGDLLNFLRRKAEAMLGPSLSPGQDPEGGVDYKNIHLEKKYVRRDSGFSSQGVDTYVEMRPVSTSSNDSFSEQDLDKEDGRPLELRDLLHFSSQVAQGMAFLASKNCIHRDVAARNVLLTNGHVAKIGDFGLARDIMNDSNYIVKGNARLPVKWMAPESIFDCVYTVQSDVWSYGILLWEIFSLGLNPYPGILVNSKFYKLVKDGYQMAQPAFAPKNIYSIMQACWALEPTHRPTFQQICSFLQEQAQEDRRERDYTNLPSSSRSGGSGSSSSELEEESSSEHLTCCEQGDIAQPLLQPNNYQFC
T4 sequence (Q9UK32 whole entry): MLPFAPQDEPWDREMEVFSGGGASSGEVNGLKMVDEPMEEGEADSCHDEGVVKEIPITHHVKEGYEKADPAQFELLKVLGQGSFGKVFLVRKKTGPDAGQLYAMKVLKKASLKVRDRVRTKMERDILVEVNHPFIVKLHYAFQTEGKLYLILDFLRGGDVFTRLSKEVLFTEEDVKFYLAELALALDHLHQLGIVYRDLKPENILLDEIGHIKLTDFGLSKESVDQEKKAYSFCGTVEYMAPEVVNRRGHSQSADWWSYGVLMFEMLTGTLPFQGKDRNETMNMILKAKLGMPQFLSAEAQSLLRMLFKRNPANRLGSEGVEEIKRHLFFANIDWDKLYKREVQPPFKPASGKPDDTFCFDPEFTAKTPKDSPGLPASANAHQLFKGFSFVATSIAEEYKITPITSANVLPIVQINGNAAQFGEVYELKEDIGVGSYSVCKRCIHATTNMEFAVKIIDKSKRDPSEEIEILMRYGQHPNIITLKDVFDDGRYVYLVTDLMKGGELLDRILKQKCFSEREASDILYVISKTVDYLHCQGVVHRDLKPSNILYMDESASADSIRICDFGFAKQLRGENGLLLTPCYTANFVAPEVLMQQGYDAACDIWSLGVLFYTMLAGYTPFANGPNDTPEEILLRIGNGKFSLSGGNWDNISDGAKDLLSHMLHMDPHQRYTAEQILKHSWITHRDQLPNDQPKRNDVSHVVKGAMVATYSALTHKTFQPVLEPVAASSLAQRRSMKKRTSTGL
T2 sequence (P54762 18-984): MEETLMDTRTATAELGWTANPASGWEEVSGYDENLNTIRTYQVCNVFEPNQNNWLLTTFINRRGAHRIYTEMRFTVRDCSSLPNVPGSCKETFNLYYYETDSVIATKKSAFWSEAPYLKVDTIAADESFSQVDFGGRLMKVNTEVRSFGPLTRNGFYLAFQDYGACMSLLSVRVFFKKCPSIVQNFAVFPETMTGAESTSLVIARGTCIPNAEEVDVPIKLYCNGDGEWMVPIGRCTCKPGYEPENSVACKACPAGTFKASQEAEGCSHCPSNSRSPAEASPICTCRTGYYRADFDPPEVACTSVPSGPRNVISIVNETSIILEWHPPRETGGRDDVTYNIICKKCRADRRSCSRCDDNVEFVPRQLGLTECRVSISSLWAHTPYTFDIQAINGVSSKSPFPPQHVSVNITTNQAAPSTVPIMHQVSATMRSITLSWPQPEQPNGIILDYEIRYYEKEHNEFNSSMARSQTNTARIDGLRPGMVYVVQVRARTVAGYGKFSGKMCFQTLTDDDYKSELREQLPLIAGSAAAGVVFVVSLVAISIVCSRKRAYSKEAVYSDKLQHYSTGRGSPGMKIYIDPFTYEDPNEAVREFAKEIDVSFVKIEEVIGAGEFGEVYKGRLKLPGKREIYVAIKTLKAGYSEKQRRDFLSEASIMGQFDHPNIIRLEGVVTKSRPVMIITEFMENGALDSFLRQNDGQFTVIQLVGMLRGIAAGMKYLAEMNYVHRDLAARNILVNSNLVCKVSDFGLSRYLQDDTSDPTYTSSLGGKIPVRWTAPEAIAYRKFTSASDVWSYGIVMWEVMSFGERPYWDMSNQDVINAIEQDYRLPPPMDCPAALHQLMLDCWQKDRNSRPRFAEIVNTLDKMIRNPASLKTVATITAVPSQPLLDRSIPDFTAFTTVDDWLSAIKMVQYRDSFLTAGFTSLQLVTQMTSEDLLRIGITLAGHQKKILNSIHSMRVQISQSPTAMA
T15 sequence (P36896 24-505): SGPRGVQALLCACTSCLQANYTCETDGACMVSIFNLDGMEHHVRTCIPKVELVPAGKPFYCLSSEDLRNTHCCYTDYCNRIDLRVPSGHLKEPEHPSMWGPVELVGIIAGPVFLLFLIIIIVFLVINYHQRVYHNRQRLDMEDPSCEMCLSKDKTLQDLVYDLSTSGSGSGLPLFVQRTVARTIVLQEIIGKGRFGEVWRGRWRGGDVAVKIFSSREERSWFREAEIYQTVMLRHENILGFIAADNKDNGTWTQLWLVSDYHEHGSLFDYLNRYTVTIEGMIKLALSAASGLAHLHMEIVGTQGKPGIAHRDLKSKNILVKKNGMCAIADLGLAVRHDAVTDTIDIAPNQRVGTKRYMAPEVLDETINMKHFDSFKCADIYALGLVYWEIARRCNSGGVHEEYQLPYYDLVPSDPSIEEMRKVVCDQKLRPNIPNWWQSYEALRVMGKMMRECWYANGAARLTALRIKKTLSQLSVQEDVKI

Turning to `CN1CCN(CCCNc2ccc3ncn4c5ccc6[nH]ncc6c5c(=O)c2c34)CC1` [(XVII)], in the experiment on Mda231 cells, the “inhibition of cell invasion” value is recorded as “slightly more effective than Symadex”.
The term EC50 denotes the midpoint of the concentration-response curve. Take `CN(C)CCCNc1ccc2ncn3c4ccc5[nH]ncc5c4c(=O)c1c23` [Compound (IV)]: the 50% effective concentration (EC50) at RET Y791F is 0.627 µM; on EPHB1 (EPHB1, estimated, abridged dose response curve, read-out: Kinase inhibitory activity EC50), above 5 µM; on CDK5/p35, 2.8 µM; at RPS6KA6 (RSK4) it was 0.655 µM; on MAPK3 (ERK1), above 5 µM; at EPHA3 it was above 5 µM. Moreover, the half-maximal effective concentration (EC50) was 1.4 µM on PRKX; 0.38 µM on DYRK3; 0.218 µM at CAMK2D (CaMKII delta); above 5 µM at PAK2 (PAK65); 0.205 µM on CSF1R (FMS); above 5 µM on PRKCA (PKC alpha). Moreover, the EC50 at EGFR (ErbB1) L858R is above 5 µM; at LYN A, 0.389 µM; at ACVR1B (ALK4), above 5 µM; at MAP3K8 (COT) it was above 5 µM; at PRKCG (PKC gamma), above 5 µM; on MINK1 (ZC3) it was 1.36 µM.
Turning to `CCN(CC)CCCNc1ccc2ncn3c4ccc5[nH]ncc5c4c(=O)c1c23` [Compound (XV)], in the experiment with Mda231 cells, the “inhibition of cell invasion” value is reported as “slightly more effective than Symadex”.
Turning to `CCN(CC)CCNc1ccc2ncn3c4ccc(O)cc4c(=O)c1c23` [Symadex, 5-(2-(diethylamino)ethylamino)-8-hydroxy-6H-imidazo[4,5,1-de]acridin-6-one, reference compound], the half-maximal effective concentration (EC50) was 1.24 µM at RET Y791F; above 5 µM at EPHB1; above 5 µM on CDK5/p35; 0.182 µM on RPS6KA6 (RSK4); above 5 µM at MAPK3 (ERK1); above 5 µM on EPHA3. In addition, the EC50 at PRKX is 3.56 µM; on DYRK3, 0.611 µM; on CAMK2D (CaMKII delta), 2.06 µM; on PAK2 (PAK65), above 5 µM; at CSF1R (FMS), 0.428 µM; on PRKCA (PKC alpha), above 5 µM. In addition, the concentration for a half-maximal effect (EC50) was above 5 µM at EGFR (ErbB1) L858R; 0.791 µM on LYN A; above 5 µM on ACVR1B (ALK4); 4.63 µM at MAP3K8 (COT); 1.89 µM on PRKCG (PKC gamma); 1.09 µM at MINK1 (ZC3).
